Read-outs that look alike come from different tables or passages of the source.
Target: hT2R8 (Homo sapiens (Human), UniProt Q9NYW2)
Test: hT2R8 antagonist high-throughput FLIPR assay, stable cell line with G16g44, agonist andrographolide
Format: cell-based
Method in brief: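 Antagonist screen: compounds co-applied with agonist andrographolide at 200 μM, a dose giving 70–80% of maximal hT2R8 activation. Fluorescence measured by FLIPR in a stable HEK293 line expressing both hT2R8 and the promiscuous G16g44 protein.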

[1] = read-out: IC50 on hT2R8 bitter receptor
[2] = table after Example 10-97, read-out: hT2R8 IC50
[3] = table after Example 12-37, read-out: hT2R8 IC50
[4] = unit uM, read-out: IC50 on hT2R08 bitter receptor

Sequence of hT2R8 (Q9NYW2 whole entry): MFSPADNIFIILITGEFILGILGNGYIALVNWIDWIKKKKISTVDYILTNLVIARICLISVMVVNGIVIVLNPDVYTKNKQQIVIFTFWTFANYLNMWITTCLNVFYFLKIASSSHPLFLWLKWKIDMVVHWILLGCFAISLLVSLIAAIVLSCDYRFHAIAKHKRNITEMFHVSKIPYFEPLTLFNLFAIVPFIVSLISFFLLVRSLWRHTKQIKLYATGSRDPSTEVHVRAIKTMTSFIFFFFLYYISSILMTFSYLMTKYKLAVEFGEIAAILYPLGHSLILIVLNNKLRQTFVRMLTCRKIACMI

| IC50 [1] [µM] | IC50 [2] [µM] | Structure (SMILES) | also measured |
| --- | --- | --- | --- |
| 0.08 |  | COc1ccccc1CN1C(=O)N(c2cnn(Cc3c(C)noc3C)c2)C(=O)C1(C)C [Example 12-31, 3-(1-((3,5-dimethylisoxazol-4-yl)methyl)-1H-pyrazol-4-yl)-1-(2-methoxybenzyl)-5,5-dimethylimidazolidine-2,4-dione] |  |
| 0.65 |  | Cc1noc(C)c1Cn1cc(N2C(=O)[C@H](C(C)C)N(Cc3cccc(O)c3)C2=O)cn1 [Example 12-8, (S)-3-(1-((3,5-dimethylisoxazol-4-yl)methyl)-1H-pyrazol-4-yl)-1-(3-hydroxybenzyl)-5-isopropylimidazolidine-2,4-dione] |  |
| 0.08 |  | Cc1noc(C)c1Cn1cc(N2C(=O)N(Cc3ccc(F)cc3)C(C)(C)C2=O)cn1 [Example 12-29, 3-(1-((3,5-dimethylisoxazol-4-yl)methyl)-1H-pyrazol-4-yl)-1-(4-fluorobenzyl)-5,5-dimethylimidazolidine-2,4-dione] |  |
| 0.07 |  | Cc1noc(C)c1Cn1cc(N2C(=O)N(Cc3cccc(O)c3)C3(CCCC3)C2=O)cn1 [Example 12-5, 3-(1-((3,5-dimethylisoxazol-4-yl)methyl)-1H-pyrazol-4-yl)-1-(3-hydroxybenzyl)-1,3-diazaspiro[4.4]nonane-2,4-dione] |  |
| 0.18 |  | COc1cc(CN2C(=O)N(c3cnn(Cc4c(C)noc4C)c3)C(=O)C2(C)C)ccc1F [Example 12-20, 3-(1-((3,5-dimethylisoxazol-4-yl)methyl)-1H-pyrazol-4-yl)-1-(4-fluoro-3-methoxybenzyl)-5,5-dimethylimidazolidine-2,4-dione] |  |
| 0.02 |  | Cc1noc(C)c1Cn1cc(N2C(=O)[C@@H]3Cc4ccc(O)cc4CN3C2=O)cn1 [Example 13-1, (S)-2-(1-((3,5-dimethylisoxazol-4-yl)methyl)-1H-pyrazol-4-yl)-7-hydroxy-10,10a-dihydroimidazo[1,5-b]isoquinoline-1,3(2H,5H)-dione] |  |

Second part, the compound before the results:

| Structure (SMILES) | IC50 [1] [µM] | IC50 [2] [µM] | also measured |
| --- | --- | --- | --- |
| Cc1noc(C)c1Cn1cc(N2C(=O)C(C)N(Cc3ccccc3)C2=O)cn1 (stereo not drawn) [Example 10-43, 1-benzyl-3-(1-((3,5-dimethylisoxazol-4-yl)methyl)-1′-1-pyrazol-4-yl)-5-methylimidazolidine-2,4-dione] | 0.02 | 0.02 |  |
| Cc1noc(C)c1Cn1cc(N2C(=O)N(Cc3ccccn3)C(C)(C)C2=O)cn1 [Example 12-61, 3-(1-((3,5-dimethylisoxazol-4-yl)methyl)-1H-pyrazol-4-yl)-5,5-dimethyl-1-(pyridin-2-ylmethyl)imidazolidine-2,4-dione] |  |  | IC50 [3]: 0.26 µM |
| Cc1noc(C)c1Cn1cc(N2C(=O)CN(CCc3ccccc3F)C2=O)cn1 [Example 10-83, 3-(1-((3,5-dimethylisoxazol-4-yl)methyl)-1H-pyrazol-4-yl)-1-(2-fluorophenethyl)imidazolidine-2,4-dione] | 0.13 | 0.442 |  |
| Cc1noc(C)c1Cn1cc(N2C(=O)NC(CC3CCCCC3)C2=O)cn1 (stereo not drawn) [Example 10-57, 5-(cyclohexylmethyl)-3-(1-((3,5-dimethylisoxazol-4-yl)methyl)-1H-pyrazol-4-yl)imidazolidine-2,4-dione] | 0.96 | 0.962 |  |
| Cc1noc(C)c1Cn1cc(N2C(=O)CN(CCCc3ccccc3)C2=O)cn1 [Example 10-94, 3-(1-((3,5-dimethylisoxazol-4-yl)methyl)-1H-pyrazol-4-yl)-1-(3-phenylpropyl)imidazolidine-2,4-dione] | 0.26 | 0.068 |  |
| Cc1noc(C)c1Cn1cc(N2C(=O)CN(CCc3cccc(Cl)c3)C2=O)cn1 [Example 10-82, 1-(3-chlorophenethyl)-3-(1-((3,5-dimethylisoxazol-4-yl)methyl)-1H-pyrazol-4-yl)imidazolidine-2,4-dione] | 0.2 | 0.982 |  |
| Cc1noc(C)c1Cn1cc(NC(=O)c2ccc[nH]2)cn1 [Example 4-13, N-(1-((3,5-dimethylisoxazol-4-yl)methyl)-1H-pyrazol-4-yl)-1H-pyrrole-2-carboxamide] | 0.57 |  |  |
| Cc1noc(C)c1Cn1cc(NC(=O)c2ccncc2)cn1 [Example 4-50, N-(1-((3,5-dimethylisoxazol-4-yl)methyl)-1H-pyrazol-4-yl)isonicotinamide] |  |  | IC50 (Table A, read-out: hT2R8 IC50): 4.59 µM |
| COc1cc(CC(=O)Nc2cnn(Cc3c(C)noc3C)c2)ccc1O [Example 4-69, N-(1-((3,5-dimethylisoxazol-4-yl)methyl)-1H-pyrazol-4-yl)-2-(4-hydroxy-3-methoxyphenyl)acetamide] |  |  | IC50 (Table A, read-out: hT2R8 IC50): 4.7 µM |
| CC(=O)OC(C(=O)Nc1cnn(Cc2c(C)noc2C)c1)c1ccccc1 (stereo not drawn) [Example 4-39, 2-(1-((3,5-dimethylisoxazol-4-yl)methyl)-1H-pyrazol-4-ylamino)-2-oxo-1-phenylethyl acetate] |  |  | IC50 (Table A, read-out: hT2R8 IC50): 0.83 µM |
| Cc1noc(C)c1Cn1cc(N2C(=O)NC(CC3CCCC3)C2=O)cn1 (stereo not drawn) [Example 10-58, 5-(cyclopentylmethyl)-3-(1-((3,5-dimethylisoxazol-4-yl)methyl)-1H-pyrazol-4-yl)imidazolidine-2,4-dione] | 0.31 | 0.316 |  |
| Cc1noc(C)c1Cn1cc(N2C(=O)N(CCO)C(C)(C)C2=O)cn1 [Example 12-77, 3-(1-((3,5-dimethylisoxazol-4-yl)methyl)-1H-pyrazol-4-yl)-1-(2-hydroxyethyl)-5,5-dimethylimidazolidine-2,4-dione] |  |  | IC50 [3]: 0.56 µM |
| Cc1noc(C)c1Cn1cc(N2C(=O)CN(Cc3cccc(C=O)c3)C2=O)cn1 [Example 10-24, 3-((3-(1-((3,5-dimethylisoxazol-4-yl)methyl)-1H-pyrazol-4-yl)-2,4-dioxoimidazolidin-1-yl)methyl)benzaldehyde] |  | 0.201 | IC50 [4]: 0.2 µM |
| COc1ccc(CN2CC(=O)N(c3cnn(Cc4c(C)noc4C)c3)C2=O)cc1OC [Example 10-35, 1-(3,4-dimethoxybenzyl)-3-(1-((3,5-dimethylisoxazol-4-yl)methyl)-1H-pyrazol-4-yl)imidazolidine-2,4-dione] |  | 0.051 | IC50 [4]: 0.06 µM |
| CSc1ccccc1CN1CC(=O)N(c2cnn(Cc3c(C)noc3C)c2)C1=O [Example 10-15, 3-(1-((3,5-dimethylisoxazol-4-yl)methyl)-1H-pyrazol-4-yl)-1-(2-(methylthio)benzyl)imidazolidine-2,4-dione] |  | 0.016 | IC50 [4]: 0.03 µM |
| COc1cc(C(=O)Nc2cnn(Cc3c(C)noc3C)c2)cc2c1OCO2 [Example 4-92, N-(1-((3,5-dimethylisoxazol-4-yl)methyl)-1H-pyrazol-4-yl)-7-methoxybenzo[d][1,3]dioxole-5-carboxamide] | 0.7 |  |  |
| COc1ccc(OC)c(S(=O)(=O)Nc2cnn(Cc3c(C)noc3C)c2)c1 [Example 4-101, N-(1-((3,5-dimethylisoxazol-4-yl)methyl)-1H-pyrazol-4-yl)-2,5-dimethoxybenzenesulfonamide] |  |  | IC50 (Table A, read-out: hT2R8 IC50): 1.63 µM |
| Cc1noc(C)c1Cn1cc(N2C(=O)CN(Cc3ccccc3C(F)(F)F)C2=O)cn1 [Example 10-22, 3-(1-((3,5-dimethylisoxazol-4-yl)methyl)-1H-pyrazol-4-yl)-1-(2-(trifluoromethyl)benzyl)imidazolidine-2,4-dione] |  | 0.221 | IC50 [4]: 0.2 µM |
| Cc1noc(C)c1Cn1cc(N2C(=O)NC(C)(C)C2=O)cn1 [Example 12-16a, 3-(1-((3,5-dimethylisoxazol-4-yl)methyl)-1H-pyrazol-4-yl)-5,5-dimethylimidazolidine-2,4-dione] | 2.27 |  |  |
| Cc1noc(C)c1Cn1cc(N2C(=O)N(Cc3ccc(O)cc3)C(C)(C)C2=O)cn1 [Example 12-38, 3-(1-((3,5-dimethylisoxazol-4-yl)methyl)-1H-pyrazol-4-yl)-1-(4-hydroxybenzyl)-5,5-dimethylimidazolidine-2,4-dione] |  |  | IC50 [3]: 0.07 µM |
| COC(=O)c1cccc(CN2CC(=O)N(c3cnn(Cc4c(C)noc4C)c3)C2=O)c1 [Example 10-7, methyl 3-((3-(1-((3,5-dimethylisoxazol-4-yl)methyl)-1H-pyrazol-4-yl)-2,4-dioxoimidazolidin-1-yl)methyl)benzoate] | 0.09 | 0.102 |  |
| Cc1noc(C)c1Cn1cc(NC(=S)Nc2cccc(C#N)c2)cn1 [Example 4-109, 1-(3-cyanophenyl)-3-(1-((3,5-dimethylisoxazol-4-yl)methyl)-1H-pyrazol-4-yl)thiourea] |  |  | IC50 (Table A, read-out: hT2R8 IC50): 0.783 µM |
| COc1ccccc1CN1CC(=O)N(c2cnn(Cc3c(C)noc3C)c2)C1=O [Example 10-18, 3-(1-((3,5-dimethylisoxazol-4-yl)methyl)-1H-pyrazol-4-yl)-1-(2-methoxybenzyl)imidazolidine-2,4-dione] |  | 0.06 | IC50 [4]: 0.06 µM |
| Cc1noc(C)c1Cn1cc(N2C(=O)CN(CCc3cccc4ccccc34)C2=O)cn1 [Example 10-80] | 1.27 | 0.927 |  |
| CCn1c(=O)n(-c2cnn(Cc3c(C)noc3C)c2)c(=O)n1Cc1ccccc1 [Example 10-91, 1-benzyl-4-(1-((3,5-dimethylisoxazol-4-yl)methyl)-1H-pyrazol-4-yl)-2-ethyl-1,2,4-triazolidine-3,5-dione] | 0.04 | 0.041 |  |
| Cc1noc(C)c1Cn1cc(N2C(=O)N[C@@H](Cc3ccccc3)C2=O)cn1 [Example 10-3, (S)-5-benzyl-3-(1-((3,5-dimethylisoxazol-4-yl)methyl)-1H-pyrazol-4-yl)imidazolidine-2,4-dione] |  | 0.113 |  |
| COC(=O)c1sccc1S(=O)(=O)Nc1cnn(Cc2c(C)noc2C)c1 [Example 4-104, methyl 3-(N-(1-((3,5-dimethylisoxazol-4-yl)methyl)-1H-pyrazol-4-yl)sulfamoyl)thiophene-2-carboxylate] |  |  | IC50 (Table A, read-out: hT2R8 IC50): 1.25 µM |
| Cc1noc(C)c1Cn1cc(N2C(=O)N(Cc3ccccc3F)C(C)(C)C2=O)cn1 [Example 12-45, 3-(1-((3,5-dimethylisoxazol-4-yl)methyl)-1H-pyrazol-4-yl)-1-(2-fluorobenzyl)-5,5-dimethylimidazolidine-2,4-dione] |  |  | IC50 [3]: 0.11 µM |

— patent US9247759B2, “Identification of human T2R receptors that respond to bitter compounds that elicit the bitter taste in compositions, and the use thereof in assays to identify compounds that inhibit (block) bitter taste in compositions and use thereof” (SENOMYX, INC., priority 2007, dated 2016)
